Results taken from patent publication US20060099712A1, “Correlation of anti-cancer activity of dyes with redox potentials” (Eastman Kodak Company, priority 2004, published 2006).
Where two headings read alike, the source gives them in different places. Values belong to the molecule of their own block, whether it stands above or below them.

Experiments:
[1] = Octanol/water partition (log P); assay type: physicochemical; conditions: shaking with water and octanol
Source text: Octanol/water partition coefficients (log P) are usually used as a model of drug transport between water and the biophase, as disclosed in A. Leo, C. Hansch, Substituent Constants—for Correlation Analysis in Chemistry. and' Biology, Wiley, New York, 1979 and A. Leo, C. Hansch, D. Elkins, Chem. Rev., 6, 525 (1971), both incorporated herein by reference. Often partition coefficients can be measured simply by shaking the compound with a mixture of water and octanol and determining the concentration of the solute in either solvent. P is equal to the concentration of the solute in octanol divided by its concentration in water. In general, it is possible to measure log P values ranging from −4.0 to 6.0. The situation is also more complicated when the species is charged because of the effects of ion pairing.

[2] = In vivo tests (toxicity)
Source text: Benzothiazole is by far the next best.

[3] = tested on: CX-1 Human Colon Carcinoma; test: Clonogenic dye screening assay, CX-1 cells (IC50); assay type: cell-based; conditions: for CV/CX (selectivity, kill ratio): ratio of IC50 in normal CV-1 line to IC50 in carcinoma CX-1 line; for IC50: Homo sapiens; for Selectivity: Table 1, cell line not given, values equal CV/CX of Table II
In short: (§1)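 Cells seeded 16-30 h ahead (2000 CX-1 or 1000 CV-1 per well), exposed to serially diluted dyes for 3 h at 37 °C, rinsed three times, then grown into colonies. Eight-point curves spanned 0.32-0.0015 μg/mL (CX-1) and 3.2-0.025 μg/mL (CV-1). IC50 is the concentration killing 50% of cells.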

[4] = Dye solubility (water, 5% dextrose/water); assay type: physicochemical; conditions: among compounds with enhanced activity
Source text: Dye solubility is also a factor, since compounds having low water solubility are difficult or impossible to include in in vivo testing.
S13 is one of the simplest cyanine dye structures possible (in this nomenclature the S refers to the sulfur, the 1 indicates one carbon on the nitrogen and 3 indicates a 3 methine chain). […] A synthetic challenge will be to enhance the activity/selectivity of this dye and retain its good water solubility. [drawing 23]

[5] = Table XXII; chain substituent hydrophobicity parameter; cited from earlier work
[6] = Table XXII; chain substituent electronic parameter; cited from earlier work
[7] = Table XXII; chain substituent steric parameter; cited from earlier work
[8] = Table XXII; chain substituent steric parameter; cited from earlier work; remark: listed apart in the source
[9] = tested on: CV-1 Normal Monkey Kidney Epithelial; test: Clonogenic dye screening assay, CV-1 cells (IC50); assay type: cell-based, African green monkey; conditions: Primates
In short: as §1

[10] = Clonogenic dye screening assay, CX-1 cells (IC50); assay type: cell-based, human; conditions: Homo sapiens, CX-1, Table XII column 5; unit from method; read-out: CV (Table XII)
In short: as §1

[11] = CX-1, 3 hrs treatment, colonies after 7-10 days, unit from method, read-out: CX (IC50 in the CX-1 cell line)
[12] = CV-1, 3 hrs treatment, colonies after 7-10 days, unit from method, read-out: CV (IC50 in the CV-1 cell line)

Molecule: CCN1C(=CC=Cc2sc3ccccc3[n+]2CC)Sc2ccccc21.[I-] [3,3′-diethylthiacarbocyanine iodide]
octanol/water partition [1]: partition completely into the octanol phase

Molecule: Indole
toxicity in vivo [2]: high toxicity | CV/CX (selectivity, kill ratio) [3]: highest selectivity

solubility [4]: most desirably soluble | IC50 [3, 11]: 5 ng/mL | IC50 ([3]; CX-1, Table XX, thiacarbocyanine nitrogen substituents, CX-1 cells, read-out: CX): < 5 ng/mL
Molecule: CN1/C(=C/C=C/c2sc3ccccc3[n+]2C)Sc2ccccc21 [Dye D-100]
π [5]: 0.00 | F [6]: 0.00 | R [6]: 0.00 | σm [6]: 0.00 | σp [6]: 0.00 | Selectivity [3]: 100 | CV/CX ([3]; Table XX, ratio given a value of 1 where dye inactive): 100.0 | CV/CX (selectivity, kill ratio) [3]: 100 | B1 [7]: 1.00 | L [7]: 2.06 | MR [8]: 0.103 | IC50 [9, 12]: 500 ng/mL | IC50 ([9]; CV-1, Table XX, thiacarbocyanine nitrogen substituents, CV-1 cells, read-out: CV): 500 ng/mL

IC50 [10]: 5 ng/mL | IC50 [3, 11]: 5 ng/mL | IC50 ([3]; CX-1, Table XVI, unsymmetrical dyes, CX-1 cells, read-out: CX): 5 ng/mL
Molecule: CCN1/C(=C/C=C/c2sc3ccccc3[n+]2CC)Oc2ccccc21 [Dye D-104]
Selectivity [3]: 200 | CV/CX ([3]; Table XVI, selectivity ratio of IC50 values): 200.0 | CV/CX (selectivity, kill ratio) [3]: 200 | IC50 [9, 12]: 1000 ng/mL | IC50 ([9]; CV-1, Table XVI, unsymmetrical dyes, CV-1 cells, read-out: CV): 1000 ng/mL
